Source: patent publication US20130131065A1, “TREATMENT OF TYPE 2 DIABETES” (priority 2010, published 2013)

Tested on: Rat pancreatic islets
Assay: Apoptosis (cytoplasmic nucleosomes, Cell Death Detection ELISA) in cultured rat pancreatic islets with or without cytokine cocktail
Assay type: cell-based
Procedure: Male Wistar rat islets (Elevage Janvier, Le Genest-St-Isle, France) were isolated using collagenase (Serva, Heidelberg, Germany) and cultured in RPMI at 11 mM glucose (Invitrogen, CA, USA) supplemented with 10% FCS (Fetal Calf Serum), 100 Units/ml penicillin, 100 μg/ml streptomycin and 100 μg/ml gentamycin in low-attachment 24-well plates (Corning, N.Y., USA). These islets were incubated with a cocktail of rat cytokines (TNF-alpha, IL-1beta and INF-gamma each at 2 ng/ml) for 24 hours (Brun T. et al., 2004 and 2007). […] Aliquots of the medium were used to measure insulin accumulated during the culture period using immune enzyme assay kits (Brunchwig, Basel, Switzerland). Furthermore, quantification of cytoplasmic nucleosomes, a direct indicator of apoptosis, was performed with the Cell Death Detection ELISA kit (Roche, Basel, Switzerland). Each condition was tested with 50 rat islets in duplicate and four independent experiments were performed. The results are provided as mean+/−sem and statistical analyses were performed using one-way ANOVA with Bonferroni and Dunnett post-hoc tests.
The conditions without cytokines allowed the analysis of the specific effect of the compound on islets while the combination of the drug with cytokines allowed the study of the effect of Imeglimin on islets under an inflammatory stress. To measure cell death in islets, quantification of cytoplasmic nucleosomes in islet cells, a consequence of DNA fragmentation during apoptosis (Robertson et al., 2000), was performed. […] Furthermore, a negative control and a positive control were added to the conditions with and without cytokines to test the effectiveness of the protocol. […] The results of the quantification of cell death for each condition are presented on FIG. 1.

[1] = with cytokines (TNF-alpha, IL-1beta, INF-gamma each 2 ng/ml, 24 hours), compound at 100 μM
[2] = with cytokines (each 2 ng/ml, 24 hours), compound at 1 mM
[3] = with cytokines (each 2 ng/ml, 24 hours), Exendin-4 at 10 nM

Row | Molecule | protection of the islets from the cytokine stress (both doses (100 μM and 1 mM), cytokines each 2 ng/ml, 24 hours) | less apoptosis than cytokine-stressed islets [1] | less apoptosis than untreated islets [1] | protection: less apoptosis than cytokine-stressed islets [2] | protection: less apoptosis than untreated islets [2] | more potent than Exendin-4 (protective effect) (with cytokines, lower concentration tested (100 μM) vs Exendin-4 at 10 nM) | level of protection relative to the Exendin-4 level (without cytokines, compound at 100 μM vs Exendin-4 at 10 nM) | less apoptosis than untreated islets (without cytokines, compound at 100 μM, 24 hours) | drop in apoptosis vs cytokine-stressed islets [3] | drop in apoptosis vs untreated islets [3] | decrease in cell death (vs untreated islets) (without cytokines, Exendin-4 at 10 nM, 24 hours)
1 | CC1N=C(N)NC(N(C)C)=N1.Cl (single isomer, unassigned; (+)) [(+)-2-amino-3,6-dihydro-4-dimethylamino-6-methyl-1,3,5-triazine hydrochloride] | completely protected | 37% | 29% | 25% | 16% | ~50% | two thirds | 10% | – | – | –
2 | Exendin-4 [reference compound] | – | – | – | – | – | – | – | – | 29% | 20% | 16%
